# Key:
# Type in all cases: in vivo
# [1] = test system: Aedes aegypti; assay: Repellency on treated membrane-covered blood-filled wells; settings: 20 min; for Avg % Repellency: relative to control
# Protocol: (§1) The invention is illustrated by, but not limited to, the following examples. • Five replicates of 250 adult female mosquitoes each were placed in clear plastic cages with access to five warmed, blood-filled, membrane-covered wells. The mosquitoes were Aedes aegypti unless otherwise noted. Membranes were treated with repellent. Five replicates were tested. Each replicate used a fresh batch of mosquitoes, blood and treated membranes. The number of mosquitoes probing each well was recorded at two minute intervals for 20 minutes. The total numbers of probes on each well were tallied at the end of the observation period and the average percentage repellency relative to the control was calculated for each formulation.
# [2] = test system: Aedes aegypti; assay: Human forearm-in-cage test, time to first confirmed bite; settings: max 8 hours
# Protocol: (§2) In addition, human testing was performed to determine the efficacy of compounds from structure (I). Mosquito species used are described in the tables below. Each test subject was exposed to 2 products each test day. The application rate was between 0.65 ml and 1 ml/250 cm^2 for all repellents. The actual amount of repellent used was based upon the amount that provides thorough coverage of the 250 cm^2 treatment area. A repellent was applied using either a micropipette or a syringe minus the needle. The repellents were then evenly spread on the treatment area with a gloved finger. Each test subject's forearms were allowed to air dry for approximately 30 minutes prior to the first exposure. The study coordinator or technician assisted the test subjects in inserting their arms into the test cages containing 200 mosquitoes, taking care not to rub them on the cloth sleeve, to confirm that the insects were biting. If fewer than 10 mosquitoes land on the untreated arm in 60 seconds (all would normally bite), fresh mosquitoes will be added. Typically, the ten (10) landings took place within 10-30 seconds. Both treated arms were inserted into a cage; there were two subjects (4 arms) per cage. The test subjects exposed their treated forearms to the mosquitoes in the test cages for 5 minutes. The subjects then remove their arms from the cages with assistance from the study coordinator or a technician. Exposures of each arm were repeated every 30 minutes until the repellent on that arm was determined to be no longer effective (‘breakdown’) or until 8 hours have elapsed, whichever occurred first. Breakdown occurs when the first confirmed bite is noted. A confirmed bite occurs when a bite is followed by a second bite in the same exposure period or in the next succeeding exposure period. The second bite becomes the confirming bite and the breakdown time is taken as the time of the first bite. The average of two repetitions is given.
# [3] = test system: Aedes aegypti; assay: as above; settings: without the use of polymers or other inert ingredients; species not stated
# [4] = test system: Culex quinquefasciatus; assay: Repellency on treated membrane-covered blood-filled wells; settings: 7% in isopropanol, 20 min; for Avg % Repellency: relative to control
# Protocol: as §1
# [5] = test system: Anopheles quadrimaculatus; assay: Human forearm-in-cage test, time to first confirmed bite; settings: 10%, max 8 hours
# Protocol: as §2
# [6] = test system: Culex quinquefasciatus; assay: as above; settings: 10%, max 8 hours
# Protocol: as §2
# [7] = test system: Aedes aegypti; assay: Toxicity to mosquitoes of treated surface (aluminum foil), 5 min exposure; settings: 2.5% in ethanol, dried on foil
# Protocol: A test was designed to determine if two test samples at 2 concentrations applied to a surface are toxic to mosquitoes. Aluminum foil squares, […] were treated with one of the test samples and after drying were placed on top of large Petri dishes, 6″ in diameter. Inverted polystyrene cups, 3.5″ in diameter and 3″ high, each with a circular hole drilled through the bottom, and the sides and top painted with Fluon, were used as the treatment containers. They were placed on top of the Petri dishes and secured with rubber bands. Mosquitoes were aspirated and gently blown through the drilled hole into the arena. A plastic disc was then placed over the hole. Five replicates of ten female Aedes aegypti were used for the test sample treatment and an additional 5 replicates of 10 mosquitoes were used for solvent control. Mosquitoes were constantly exposed to the dried test material for 5 minutes, after which time they were transferred into clean containers, where they were provided a sucrose solution for nourishment. The formal observations for knockdown were made at 1 and 4 hours. At 24 hours the numbers of live, moribund and dead mosquitoes were counted.
compound,measurement,setting,value
CCCCCCC1CC(=O)C=C(C)C1 (stereo not shown) [3-methyl-5-hexyl-2-cyclohexenone],Avg # Probes,[1]; 5% in isopropanol,0
same,Avg % Repellency,[1]; 5% in isopropanol,100%
CCCCCCCCCC1(C)CCC(=O)O1 (stereo not shown) [gamma Methyl Tridecalactone],Avg # Probes,[1]; 5% in isopropanol,4
same,Avg % Repellency,[1]; 5% in isopropanol,96%
CC(C)CCCC(C)CCC1CCCC1=O (stereo not shown) [tetrahydroapritone],Avg # Probes,[1]; 7% in isopropanol,3.8
same,Avg % Repellency,[1]; 7% in isopropanol,93.7%
CCC(C)=CCCC(C)=CCC1CCCC1O (stereo not shown) [methyl apritol],Avg # Probes,[1]; 7% in isopropanol,6.6
same,Avg % Repellency,[1]; 7% in isopropanol,91.9%
same,Avg # Probes,[1]; 10% in isopropanol,6.8
same,Avg % Repellency,[1]; 10% in isopropanol,89.2%
dihydrojasmolactone,Avg # Probes,[1]; 7% in isopropanol,0
same,Avg % Repellency,[1]; 7% in isopropanol,100%
CCCCCC1C(O)CCC1CC(=O)OCC=C(C)C (stereo not shown) [Prenyl Dihydrojasmolate],Avg # Probes,[1]; 7% in isopropanol,3.2
same,Avg % Repellency,[1]; 7% in isopropanol,92.2%
CCCCCC1C(=O)CCC1CC(=O)OCCC (stereo not shown) [Propyl Dihydrojasmonate],100% bite protection time,[2]; 15% in isopropanol,<0.5 hr ^
same,100% bite protection time,[2]; 30% in isopropanol,1 h
same,100% bite protection time,[2]; 30% in squalane,2.75 h
same,Avg # Probes,[1]; 5% in isopropanol,4
same,Avg % Repellency,[1]; 5% in isopropanol,97%
same,Avg # Probes,[1]; 5% in squalane,0
same,Avg % Repellency,[1]; 5% in squalane,99%
same,Avg # Probes,[1]; 7% in isopropanol,2.6
same,Avg % Repellency,[1]; 7% in isopropanol,95.6%
same,prolonged repellency,[3],≥ 8 h
CC/C(C)=C/CC/C(C)=C/CC1CCCC1=O (stereo not shown) [methyl apritone],100% bite protection time,[2]; 10% in isopropanol,<0.5 hr ^
same,Avg # Probes,[1]; 7% in isopropanol,7.6
same,Avg % Repellency,[1]; 7% in isopropanol,90.4%
same,Avg # Probes,[1]; 10% in isopropanol,3.6
same,Avg % Repellency,[1]; 10% in isopropanol,93.9%
same,Avg # Probes,[4],0
same,Avg % Repellency,[4],100%
"CCCCCC1C(=O)CCC1CC(=O)OCCC (stereo not drawn) [Propyl Dihydrojasmonate - low epi, Propyl Dihydrojasmonate]",Avg # Probes,[1]; 2.5% in isopropanol,6
same,Avg % Repellency,[1]; 2.5% in isopropanol,85%
CCCCCCCCC1(C)CCC(=O)O1 (stereo not shown) [gamma Methyl Dodecalactone],Avg # Probes,[1]; 5% in isopropanol,1
same,Avg % Repellency,[1]; 5% in isopropanol,98%
CCCCCCCCCC1CCC(=O)O1 (stereo not shown) [gamma-tridecalactone],100% bite protection time,[2]; 30% in isopropanol,1 h
same,Avg # Probes,[1]; 5% in isopropanol,3.1
same,Avg % Repellency,[1]; 5% in isopropanol,94.4%
same,Avg # Probes,[1]; 7% in isopropanol,1.8
same,Avg % Repellency,[1]; 7% in isopropanol,97.5%
CCCCCC1C(=O)CCC1CC(=O)N(CC)CC (stereo not shown) [methyl dihydrojasmonate amide],Avg # Probes,[1]; 2.5% in isopropanol,18.6
same,Avg % Repellency,[1]; 2.5% in isopropanol,55%
same,Avg # Probes,[1]; 5% in isopropanol,6.8
same,Avg % Repellency,[1]; 5% in isopropanol,90.1%
CCCCCCCCCCC1CCC(=O)O1 (stereo not shown) [gamma-tetradecalactone],100% bite protection time,[2]; 15% in isopropanol,0.5 hr^
same,Avg # Probes,[1]; 7% in isopropanol,0.8
same,Avg % Repellency,[1]; 7% in isopropanol,98.9%
CCCCCCOC(=O)CC1CCC(=O)C1CCCCC (stereo not shown) [Hexyl Dihydrojamonate],Avg # Probes,[1]; 7% in isopropanol,30.4
same,Avg % Repellency,[1]; 7% in isopropanol,66.1%
CCCCCC1C(O)CCC1CCO (stereo not shown) [dihydrojasmindiol],Avg # Probes,[1]; 7% in isopropanol,7.2
same,Avg % Repellency,[1]; 7% in isopropanol,84.3%
"CC1CCC(C(C)(C)O)C(O)C1 (stereo not shown) [PMD, p-Menthane-3,8-diol, reference compound]",100% bite protection time,[5],6.75 h
same,100% bite protection time,[2]; 5% in isopropanol,2.75 h
same,100% bite protection time,[2]; 10% in isopropanol,6.25 h
same,100% bite protection time,[6],4.25 h
same,Avg # Probes,[1]; 7% in isopropanol,9
same,Avg % Repellency,[1]; 7% in isopropanol,79.2%
CCCCCCCC1CC(=O)C=C(C)C1 (stereo not shown) [3-methyl-5-heptyl-2-cyclohexenone],Avg # Probes,[1]; 5% in isopropanol,0
same,Avg % Repellency,[1]; 5% in isopropanol,99%
same,1 hr knockdown,[7],100%
same,4 hr knockdown,[7],100%
same,24 hr mortality,[7],98%
"CCN(CC)C(=O)c1cccc(C)c1 [DEET ®, N,N-Diethyl-m-toluamide, reference compound]",Avg # Probes,[1]; 4% in isopropanol,8.4
same,Avg % Repellency,[1]; 4% in isopropanol,90.8%
same,Avg # Probes,[1]; 10% in isopropanol,0.8
same,Avg % Repellency,[1]; 10% in isopropanol,98%
"CCCCCC1C(=O)CCC1CC(=O)OCCC (stereo not drawn) [Propyl Dihydrojasmonate - high epi, Propyl Dihydrojasmonate]",Avg # Probes,[1]; 2.5% in isopropanol,2
same,Avg % Repellency,[1]; 2.5% in isopropanol,95%
CCCCCCC1CC(C)=CC(O)C1 (stereo not shown) [3-methyl-5-hexyl-2-cyclohexenol],Avg # Probes,[1]; 5% in isopropanol,1
same,Avg % Repellency,[1]; 5% in isopropanol,91%
CCCCCCCCC1CCC(=O)O1 (stereo not shown) [gamma-dodecalactone],100% bite protection time,[2]; 10% in isopropanol,1.25 h
same,Avg # Probes,[1]; 7% in isopropanol,0
same,Avg % Repellency,[1]; 7% in isopropanol,100%
same,Avg # Probes,[4],0
same,Avg % Repellency,[4],100%
CCC(C)CCCC(C)CCC1CCCC1=O (stereo not shown) [tetrahydromethyl apritone],Avg # Probes,[1]; 7% in isopropanol,11
same,Avg % Repellency,[1]; 7% in isopropanol,74.9%
farnesyl cyclopentanol,Avg # Probes,[1]; 7% in isopropanol,16.2
same,Avg % Repellency,[1]; 7% in isopropanol,67.8%
CCCCCCCCCC1CCCC(=O)O1 (stereo not shown) [delta-tetradecalactone],Avg # Probes,[1]; 7% in isopropanol,1.6
same,Avg % Repellency,[1]; 7% in isopropanol,97.3%
CCCCCC1CCC(=O)O1 (stereo not shown) [gamma-nonalactone],Avg # Probes,[1]; 7% in isopropanol,20.4
same,Avg % Repellency,[1]; 7% in isopropanol,77.1%
CCCCCC1C(=O)CCC1CC(=O)OCC=C(C)C (stereo not shown) [Prenyl Dihydrojasmonate],Avg # Probes,[1]; 7% in isopropanol,2.8
same,Avg % Repellency,[1]; 7% in isopropanol,92.6%
CCCCCC1C(=O)CCC1CC(C)=O (stereo not shown) [amyl cyclopentanone propanone],Avg # Probes,[1]; 7% in isopropanol,0
same,Avg % Repellency,[1]; 7% in isopropanol,100%
CCCCCC1C(O)CCC1CC(=O)OC (stereo not shown) [Methyl Dihydrojasmolate],Avg # Probes,[1]; 4% in isopropanol,0.6
same,Avg % Repellency,[1]; 4% in isopropanol,98.8%
same,Avg # Probes,[1]; 7% in isopropanol,0
same,Avg % Repellency,[1]; 7% in isopropanol,100%
CCCCCC1C(O)CCC1CC(=O)OCC (stereo not shown) [Ethyl Dihydrojasmolate],Avg # Probes,[1]; 7% in isopropanol,0
same,Avg % Repellency,[1]; 7% in isopropanol,100%
CCCCCCCC1CCCC(=O)O1 (stereo not shown) [delta-dodecalactone],Avg # Probes,[1]; 7% in isopropanol,0
same,Avg % Repellency,[1]; 7% in isopropanol,100%
CCCCC1CC(=O)C=C(C)C1 (stereo not shown) [3-methyl-5-butyl-2-cyclohexenone],Avg # Probes,[1]; 5% in isopropanol,1
same,Avg % Repellency,[1]; 5% in isopropanol,97%
same,1 hr knockdown,[7],100%
same,4 hr knockdown,[7],100%
same,24 hr mortality,[7],88%

# Source: patent US9314029B2, “Control and repellency of mosquitoes” (BEDOUKIAN RESEARCH, INC., priority 2012, dated 2016)
